From patent US20120115865A1, “New Salts of an Indole Derivative and Their Use in Medicine” (priority 2006, published 2012)
Structures can show the parent of a compound that is named as a salt.

Test: Hygroscopicity by Dynamic Vapour Sorption Analysis (DVS)
Assay type: physicochemical
Conditions: 25° C.
Description: Dynamic Vapour Sorption Analysis (DVS)
The studies were undertaken using Dynamic Vapour Sorption Appararatus (DVS, Surface Measurement Systems, London UK). The apparatus consists of Cahn micobalance housed inside a temperature-controled cabinet. All experiments were performed at 25° C. The DVS was used to characterize the moisture uptake (% w/w) at different relative humidities (RH). Samples (5-10 mg) were weighed directly into the DSV sample cup and exposed to different relative humidities.

Compound	moisture uptake (relative humidity 40%)	moisture uptake (relative humidity 60%)	moisture uptake (relative humidity 80%)
N#Cc1ccc2[nH]c(O)c(-c3ccc(CN4CCOCC4)cn3)c2c1.O=C(O)/C=C\C(=O)O [Maleate, 2-hydroxy-3-[5-(morpholin-4-ylmethyl)pyridin-2-yl]1H-indole-5-carbonitrile maleate]	1.7 % w/w	2.2 % w/w	2.7 % w/w
2-Hydroxy-3-[5-(morpholin-4-ylmethyl)pyridin-2-yl]1H-indole-5-carbonitrile edisylate	5.1 % w/w	6.6 % w/w	8.2 % w/w
N#Cc1ccc2[nH]c(O)c(-c3ccc(CN4CCOCC4)cn3)c2c1.O=C(O)/C=C/C(=O)O [Fumarate, 2-hydroxy-3-[5-(morpholin-4-ylmethyl)pyridin-2-yl]1H-indole-5-carbonitrile fumarate]	3.8 % w/w	4.5 % w/w	5.1 % w/w
CS(=O)(=O)O.N#Cc1ccc2[nH]c(O)c(-c3ccc(CN4CCOCC4)cn3)c2c1 [Mesylate, 2-Hydroxy-3-[5-(morpholin-4-ylmethyl)pyridin-2-yl]1H-indole-5-carbonitrile mesylate]	0.7 % w/w	1.1 % w/w	1.6 % w/w
N#Cc1ccc2[nH]c(O)c(-c3ccc(CN4CCOCC4)cn3)c2c1 [HCl, 2-hydroxy-3-[5-(morpholin-4-ylmethyl)pyridin-2-yl]1H-indole-5-carbonitrile, reference compound]	8.7 % w/w	11.5 % w/w	13.0 % w/w
CCS(=O)(=O)O.N#Cc1ccc2[nH]c(O)c(-c3ccc(CN4CCOCC4)cn3)c2c1 [Esylate, 2-Hydroxy-3-[5-(morpholin-4-ylmethyl)pyridin-2-yl]1H-indole-5-carbonitrile esylate]	0.5 % w/w	0.8 % w/w	1.2 % w/w
N#Cc1ccc2[nH]c(O)c(-c3ccc(CN4CCOCC4)cn3)c2c1.O=P(O)(O)O [Phosphate, 2-hydroxy-3-[5-(morpholin-4-ylmethyl)pyridin-2-yl]1H-indole-5-carbonitrile phosphate]	4.1 % w/w	6.6 % w/w	10.8 % w/w
